Assay results published in patent publication US9901577B2, “Oxoquinazolinyl-butanamide derivatives” (MERCK PATENT GMBH, priority 2013, dated 2018).
Where two headings read alike, the source gives them in different places.

What was measured:
Tankyrase = test system: T1, Tankyrase; test: Measurement of cellular inhibition of Tankyrase (Axin2 level in DLD1 cells, Luminex based assay); format: cell-based; conditions: read-out: EC50 [M] TNKS cellular assay; DLD1 cells, Axin2 increase, 24 hours
T1 construct: TNKS cellular assay; other: DLD1 cells, Axin2 increase, 24 hours
Procedure: Measurement of Cellular Inhibition of Tankyrase
Cells of the colon carcinoma cell line DLD1 are plated in 96 well plates with 1.5×10^4 cells per well. Next day, cells are treated with a serial dilution of test compound in seven steps as triplicates with a final DMSO concentration of 0.3%. […] The amount of isolated Axin2 protein is determined in a Luminex^200 machine (Luminex Corporation) according to the manufacturer's instruction by counting 100 events per well. […] As controls cells are treated with solvent alone (neutral control) and with a Tankyrase reference inhibitor IWR-2 (3E-06 M) which refers as control for maximum increase of Axin2. For analysis, the obtained data are normalized against the untreated solvent control and fitted for determination of the EC50 values using the Assay Explorer software (Accelrys).

PARP-1 = molecular target: T2, PARP-1 (Homo sapiens, UniProt P09874); test: PARP-1 autoparsylation assay (HTRF); format: biochemical; conditions: His-tagged Parp-1, autoparsylation
T2 construct: purchased Enzo Life Sciences GmbH, Lörrach, Germany
T2 sequence (P09874 whole entry): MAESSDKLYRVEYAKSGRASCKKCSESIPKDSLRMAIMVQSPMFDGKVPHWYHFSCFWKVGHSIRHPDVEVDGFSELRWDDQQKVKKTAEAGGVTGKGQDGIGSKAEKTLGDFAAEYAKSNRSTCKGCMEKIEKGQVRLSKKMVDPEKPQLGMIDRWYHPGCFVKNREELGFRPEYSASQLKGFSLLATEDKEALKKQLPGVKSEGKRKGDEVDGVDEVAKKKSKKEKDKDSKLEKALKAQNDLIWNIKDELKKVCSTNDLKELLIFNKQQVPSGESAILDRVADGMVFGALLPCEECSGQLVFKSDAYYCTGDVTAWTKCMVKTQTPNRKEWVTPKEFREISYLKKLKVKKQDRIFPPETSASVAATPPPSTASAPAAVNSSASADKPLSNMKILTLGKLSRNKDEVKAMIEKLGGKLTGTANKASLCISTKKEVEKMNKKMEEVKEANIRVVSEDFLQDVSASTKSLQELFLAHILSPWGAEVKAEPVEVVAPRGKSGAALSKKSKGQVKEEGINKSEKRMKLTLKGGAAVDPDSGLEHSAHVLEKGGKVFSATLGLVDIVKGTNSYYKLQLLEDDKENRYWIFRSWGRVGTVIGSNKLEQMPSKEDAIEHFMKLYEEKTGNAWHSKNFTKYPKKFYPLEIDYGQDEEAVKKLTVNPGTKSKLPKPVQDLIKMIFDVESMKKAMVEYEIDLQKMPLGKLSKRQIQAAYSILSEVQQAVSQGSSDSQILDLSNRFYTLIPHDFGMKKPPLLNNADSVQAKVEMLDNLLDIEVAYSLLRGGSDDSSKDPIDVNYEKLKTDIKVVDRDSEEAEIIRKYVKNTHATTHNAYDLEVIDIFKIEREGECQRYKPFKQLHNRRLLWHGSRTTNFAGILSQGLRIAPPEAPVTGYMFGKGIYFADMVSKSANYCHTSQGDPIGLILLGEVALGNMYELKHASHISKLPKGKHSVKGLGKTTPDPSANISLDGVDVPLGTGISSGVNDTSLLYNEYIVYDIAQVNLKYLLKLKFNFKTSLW

TNKS1 = molecular target: T3, TNKS1 (Homo sapiens, UniProt O95271); test: TNKS1 activity ELISA (autoparsylation assay); format: biochemical
T3 construct: GST-tagged Tnks-1 (1023-1327 aa, prepared in-house); made in house
T3 sequence (O95271 1023-1327): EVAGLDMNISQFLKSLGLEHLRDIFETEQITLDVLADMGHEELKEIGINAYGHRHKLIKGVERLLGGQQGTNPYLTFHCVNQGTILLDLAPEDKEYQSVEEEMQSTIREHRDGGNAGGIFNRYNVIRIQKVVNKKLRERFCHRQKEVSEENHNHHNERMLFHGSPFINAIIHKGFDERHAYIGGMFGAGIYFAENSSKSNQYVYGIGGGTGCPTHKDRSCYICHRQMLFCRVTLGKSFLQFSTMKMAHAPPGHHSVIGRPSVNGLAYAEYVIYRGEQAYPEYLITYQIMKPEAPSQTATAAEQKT
Procedure: (§1) Description of the TNKS1 and TNKS2 ELISA Assay
(§2) Biochemical Activity Testing of TNKS 1 and 2: Activity ELISA (Autoparsylation Assay)
(§3) For analysis of autoparsylation activity of TNKS 1 and 2 an activity ELISA iss performed: In the first step GST tagged TNKS is captured on a Glutathione coated plate. Then the activity assay with biotinylated NAD is performed in the absence/presence of the compounds. During the enzymatic reaction GST tagged TNKS transfers biotinylated ADP-ribose to itself from biotinylated NAD as co-substrate. For the detection streptavidin-HRP conjugate is added that binds to the biotinylated TNKS and is thereby captured to the plates. The amount of biotinylated resp. autoparsylated TNKS is detected with a luminescence substrate for HRP. The level of the luminescence signal correlates directly with the amount of autoparsylated TNKS and therefore with activity of TNKS.
(§4) The activity ELISA is performed in 384 well Glutathione coated microtiter plates (Express capture Glutathione coated plate, Biocat, Heidelberg, Germany). The plates are pre-equilibrated with PBS. […] The plates are washed 3 times with PBS-Tween-20. The wells are blocked by incubation at room temperature for 20 minutes with 50 μl blocking buffer (PBS, 0.05% Tween-20, 0.5% BSA). Afterwards the plates are washed 3 times with PBS-Tween-20. […] The reaction is stopped by 3 times washing with PBS-Tween-20. For the detection 50 μl of 20 ng/μl Streptavidin, HRP conjugate (MoBiTec, Göttingen, Germany) in PBS/0.05% Tween-20/0.01% BSA are added and the plates are incubated for 30 minutes at room temperature. After three times washing with PBS-Tween-20 50 μl of SuperSignal ELISA Femto Maximum sensitivity substrate solution (ThermoFisherScientific (Pierce), Bonn, Germany) are added. Following a 1 minute incubation at room temperature luminescence signals are measured with an Envision multimode reader (Perkin Elmer LAS Germany GmbH) at 700 nm. The full value used is the inhibitor-free reaction. […] The inhibitory values (IC50) are determined using either the program Symyx Assay Explorer® or Condosseo® from GeneData.

TNKS2 = molecular target: T4, TNKS2 (Homo sapiens, UniProt Q9H2K2); test: TNKS2 activity ELISA (autoparsylation assay); format: biochemical
T4 construct: GST-tagged Tnks-2 (873-1166 aa, prepared in-house); made in house
T4 sequence (Q9H2K2 873-1166): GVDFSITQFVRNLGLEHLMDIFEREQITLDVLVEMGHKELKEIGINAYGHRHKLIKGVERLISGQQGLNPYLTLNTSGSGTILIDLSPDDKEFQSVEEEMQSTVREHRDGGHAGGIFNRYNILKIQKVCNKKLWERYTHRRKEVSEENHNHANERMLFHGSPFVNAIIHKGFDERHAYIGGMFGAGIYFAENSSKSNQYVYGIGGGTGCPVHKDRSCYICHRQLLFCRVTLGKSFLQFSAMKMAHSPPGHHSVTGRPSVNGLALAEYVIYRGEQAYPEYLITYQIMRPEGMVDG
Procedure: as §1, §2, §3, §4

[1] = GST-tagged Tnks-1, read-out: IC50 [M] TNKS1 ELISA
[2] = GST-tagged Tnks-2, read-out: IC50 [M] TNKS2 ELISA

SMILES: COc1ccc(C(=O)C2CCN(C(=O)CCCc3nc4ccccc4c(=O)[nH]3)CC2)cc1 [Compound A1, 2-{4-[4-(4-methoxy-benzoyl)-piperidin-1-yl]-4-oxo-butyl}-3H-quinazolin-4-one]
- EC50 (Tankyrase): 1.6e-09 M
- IC50 (PARP-1): 1400 nM
- IC50 (TNKS1): 2.3e-10 M
- IC50 (TNKS2): 1.1e-10 M

SMILES: O=C(c1ccccc1)C1CCN(C(=O)CCCc2nc3ccccc3c(=O)[nH]2)CC1 [Compound A2, 2-[4-(4-benzoyl-piperidin-1-yl)-4-oxo-butyl]-3H-quinazolin-4-one]
- EC50 (Tankyrase): 6.5e-08 M
- IC50 (PARP-1): 730 nM
- IC50 (TNKS1; [1]): 7.3e-10 M
- IC50 (TNKS2; [2]): 5.5e-10 M

SMILES: Cc1cc(F)cc2c(=O)[nH]c(CCCC(=O)N3CCC(C(=O)c4ccccc4)CC3)nc12 [Compound A3, 2-[4-(4-benzoyl-piperidin-1-yl)-4-oxo-butyl]-6-fluoro-8-methyl-3H-quinazolin-4-one]
- EC50 (Tankyrase): 3.4e-09 M
- IC50 (PARP-1): 29 nM
- IC50 (TNKS1; [1]): 2.2e-10 M
- IC50 (TNKS2; [2]): 1.3e-10 M

SMILES: COc1ccc(C(=O)C2CCN(C(=O)CCCc3nc4c(C)cc(F)cc4c(=O)[nH]3)CC2)cc1 [Compound A4, 6-fluoro-2-{4-[4-(4-methoxy-benzoyl)-piperidin-1-yl]-4-oxo-butyl}-8-methyl-3H-quinazolin-4-one]
- EC50 (Tankyrase): 5.6e-10 M
- IC50 (PARP-1): 170 nM
- IC50 (TNKS1; [1]): 6.6e-11 M
- IC50 (TNKS2; [2]): 8.9e-11 M

SMILES: COc1ccc(C(=O)C2CCN(C(=O)CCCc3nc4c(F)cc(F)cc4c(=O)[nH]3)CC2)cc1 [Compound A5, 6,8-difluoro-2-{4-[4-(4-methoxy-benzoyl)-piperidin-1-yl]-4-oxo-butyl}-3H-quinazolin-4-one]
- EC50 (Tankyrase): 2.6e-09 M
- IC50 (PARP-1): 780 nM
- IC50 (TNKS1; [1]): 8.7e-11 M
- IC50 (TNKS2; [2]): 1.6e-10 M

SMILES: O=C(c1ccccc1)C1CCN(C(=O)CCCc2nc3c(F)cc(F)cc3c(=O)[nH]2)CC1 [Compound A6, 2-[4-(4-benzoyl-piperidin-1-yl)-4-oxo-butyl]-6,8-difluoro-3H-quinazolin-4-one]
- IC50 (PARP-1): 650 nM
- IC50 (TNKS1; [1]): 3.8e-10 M
- IC50 (TNKS2; [2]): 9.3e-10 M

SMILES: Cc1cccc(C(=O)C2CCN(C(=O)CCCc3nc4ccccc4c(=O)[nH]3)CC2)c1 [Compound A7, 2-{4-[4-(3-methyl-benzoyl)-piperidin-1-yl]-4-oxo-butyl}-3H-quinazolin-4-one]
- EC50 (Tankyrase): 2e-08 M
- IC50 (PARP-1): 810 nM
- IC50 (TNKS1): 2.2e-10 M
- IC50 (TNKS2): 1.9e-10 M

SMILES: COc1ccc(C(=O)C2CCN(C(=O)CCCc3nc4ccccc4c(=O)[nH]3)CC2)cc1F [Compound A8, 2-{4-[4-(3-fluoro-4-methoxy-benzoyl)-piperidin-1-yl]-4-oxo-butyl}-3H-quinazolin-4-one]
- EC50 (Tankyrase): 3.4e-09 M
- IC50 (PARP-1): 680 nM
- IC50 (TNKS1; [1]): 8.5e-11 M
- IC50 (TNKS2; [2]): 1.5e-10 M

SMILES: COc1cccc(C(=O)C2CCN(C(=O)CCCc3nc4ccccc4c(=O)[nH]3)CC2)c1 [Compound A9, 2-{4-[4-(3-methoxy-benzoyl)-piperidin-1-yl]-4-oxo-butyl}-3H-quinazolin-4-one]
- EC50 (Tankyrase): 1.9e-08 M
- IC50 (PARP-1): 740 nM
- IC50 (TNKS1; [1]): 1.9e-10 M
- IC50 (TNKS2; [2]): 3.3e-10 M

SMILES: CCn1cc(-c2ccc(C(=O)C3CCN(C(=O)CCCc4nc5ccccc5c(=O)[nH]4)CC3)cc2)cn1 [Compound A10, 2-(4-{4-[4-(1-ethyl-1H-pyrazol-4-yl)-benzoyl]-piperidin-1-yl}-4-oxo-butyl)-3H-quinazolin-4-one]
- EC50 (Tankyrase): 4.9e-09 M
- IC50 (PARP-1): 100 nM
- IC50 (TNKS1): 1e-10 M
- IC50 (TNKS2): 1.6e-10 M

SMILES: COCCn1cc(-c2ccc(C(=O)C3CCN(C(=O)CCCc4nc5ccccc5c(=O)[nH]4)CC3)cc2)cn1 [Compound A11, 2-[4-(4-{4-[1-(2-methoxy-ethyl)-1H-pyrazol-4-yl]-benzoyl}-piperidin-1-yl)-4-oxo-butyl]-3H-quinazolin-4-one]
- EC50 (Tankyrase): 7.3e-09 M
- IC50 (PARP-1): 300 nM
- IC50 (TNKS1; [1]): 5.8e-11 M
- IC50 (TNKS2; [2]): 1.2e-10 M

SMILES: O=C(c1ccc(-c2cnn(CCN3CCCC3)c2)cc1)C1CCN(C(=O)CCCc2nc3ccccc3c(=O)[nH]2)CC1 [Compound A12, 2-[4-oxo-4-(4-{4-[1-(2-pyrrolidin-1-yl-ethyl)-1H-pyrazol-4-yl]-benzoyl}-piperidin-1-yl)-butyl]-3H-quinazolin-4-one]
- EC50 (Tankyrase): 6.8e-09 M
- IC50 (PARP-1): 650 nM
- IC50 (TNKS1; [1]): 2.5e-10 M
- IC50 (TNKS2; [2]): 3.5e-10 M

SMILES: COc1ccc(C(=O)C2CCN(C(=O)CCCc3nc4ccccc4c(=O)[nH]3)CC2)cc1C [Compound A13, 2-[4-[4-(4-methoxy-3-methyl-benzoyl)-1-piperidyl]-4-oxo-butyl]-3H-quinazolin-4-one]
- EC50 (Tankyrase): 8.6e-10 M
- IC50 (PARP-1): 990 nM
- IC50 (TNKS1; [1]): 1e-10 M
- IC50 (TNKS2; [2]): 1.3e-10 M

SMILES: COc1ccc(C(=O)C2CCN(C(=O)CCCc3nc4c(F)cc(F)cc4c(=O)[nH]3)CC2)cc1C [Compound A14, 6,8-difluoro-2-[4-[4-(4-methoxy-3-methyl-benzoyl)-1-piperidyl]-4-oxo-butyl]-3H-quinazolin-4-one]
- EC50 (Tankyrase): 3.3e-09 M
- IC50 (PARP-1): 1000 nM
- IC50 (TNKS1; [1]): 8.6e-11 M
- IC50 (TNKS2; [2]): 1.6e-10 M

SMILES: COc1ccc(C(=O)C2CCN(C(=O)CCCc3nc4c(C)cc(F)cc4c(=O)[nH]3)CC2)cc1C [Compound A15, 6-fluoro-2-[4-[4-(4-methoxy-3-methyl-benzoyl)-1-piperidyl]-4-oxo-butyl]-8-methyl-3H-quinazolin-4-one]
- EC50 (Tankyrase): 1.4e-09 M
- IC50 (PARP-1): 64 nM
- IC50 (TNKS1; [1]): 8.8e-11 M
- IC50 (TNKS2; [2]): 7.4e-11 M

SMILES: COc1ccc(C(=O)C2CCN(C(=O)CCCc3nc4ccccc4c(=O)[nH]3)CC2)cn1 [Compound A16, 2-{4-[4-(6-Methoxy-pyridine-3-carbonyl)-piperidin-1-yl]-4-oxo-butyl}-3H-quinazolin-4-one]
- EC50 (Tankyrase): 1e-08 M
- IC50 (PARP-1): 2700 nM
- IC50 (TNKS1; [1]): 1.1e-09 M
- IC50 (TNKS2; [2]): 7.5e-10 M

SMILES: N#Cc1ccc(OC2CCN(C(=O)CCCc3nc4ccccc4c(=O)[nH]3)CC2)cc1 [Compound A17, 4-{1-[4-(4-Oxo-3,4-dihydro-quinazolin-2-yl)-butyryl]-piperidin-4-yloxy}-benzonitrile]
- EC50 (Tankyrase): 7.2e-07 M
- IC50 (PARP-1): 680 nM
- IC50 (TNKS1): 1.5e-07 M
- IC50 (TNKS2): 7.9e-08 M

SMILES: O=C(c1ccc(F)cc1)C1CCN(C(=O)CCCc2nc3ccccc3c(=O)[nH]2)CC1 [Compound A18, 2-{4-[4-(4-Fluoro-benzoyl)-piperidin-1-yl]-4-oxo-butyl}-3H-quinazolin-4-one]
- EC50 (Tankyrase): 2.1e-08 M
- IC50 (PARP-1): 2100 nM
- IC50 (TNKS1; [1]): 7e-10 M
- IC50 (TNKS2; [2]): 6.1e-10 M

SMILES: O=C(c1ccc(F)cc1)C1CCN(C(=O)CCCc2nc3ccc(F)cc3c(=O)[nH]2)CC1 [Compound A23, 6-Fluoro-2-{4-[4-(4-fluoro-benzoyl)-piperidin-1-yl]-4-oxo-butyl}-3H-quinazolin-4-one]
- IC50 (PARP-1): 650 nM
- IC50 (TNKS1; [1]): 8.4e-10 M
- IC50 (TNKS2; [2]): 5.9e-10 M

SMILES: CC(C)(O)c1ccc(C(=O)C2CCN(C(=O)CCCc3nc4c(F)cccc4c(=O)[nH]3)CC2)cc1 [Compound A37, 8-Fluoro-2-(4-{4-[4-(1-hydroxy-1-methyl-ethyl)-benzoyl]-piperidin-1-yl}-4-oxo-butyl)-3H-quinazolin-4-one]
- IC50 (PARP-1): 4300 nM
- IC50 (TNKS1; [1]): 1.1e-08 M

SMILES: CC(C)(O)c1ccc(C(=O)C2CCN(C(=O)CCCc3nc4ccccc4c(=O)[nH]3)CC2)cc1 [Compound A38, 2-(4-{4-[4-(1-Hydroxy-1-methyl-ethyl)-benzoyl]-piperidin-1-yl}-4-oxo-butyl)-3H-quinazolin-4-one]
- IC50 (PARP-1): 430 nM
- IC50 (TNKS1; [1]): 2.2e-08 M
- IC50 (TNKS2; [2]): 8.4e-09 M

SMILES: CC(C)(O)c1ccc(C(=O)C2CCN(C(=O)CCCc3nc4ccc(F)cc4c(=O)[nH]3)CC2)cc1 [Compound A39, 6-Fluoro-2-(4-{4-[4-(1-hydroxy-1-methyl-ethyl)-benzoyl]-piperidin-1-yl}-4-oxo-butyl)-3H-quinazolin-4-one]
- IC50 (PARP-1): 270 nM
- IC50 (TNKS1; [1]): 9.6e-09 M

SMILES: Cn1ccnc1C(=O)C1CCN(C(=O)CCCc2nc3ccccc3c(=O)[nH]2)CC1 [Compound A40, 2-{4-[4-(1-methyl-1H-imidazole-2-carbonyl)-piperidin-1-yl]-4-oxo-butyl}-3H-quinazolin-4-one]
- IC50 (PARP-1): 3200 nM
- IC50 (TNKS1): 8.2e-08 M
- IC50 (TNKS2; [2]): 6.1e-08 M
